Measurements taken from US20090286866A1, “Double compartment skincare products comprising avermectin/milbemycin compounds” (GALDERMA S.A., priority 2006, published 2009).

Key:
[1] = Maximum solubility of ivermectin in various excipients; format: physicochemical; settings: room temperature
Description: Study of the maximum solubility of ivermectin at T=1 hour at room temperature in various excipients.

[2] = Comparative study of the chemical stability of ivermectin in various excipients; format: physicochemical
Text: Comparative study of the chemical stability of ivermectin in various excipients.

Substance: ivermectin
- Maximum solubility ([1]; in Alkyl benzoate, T=1 hour): 1.60 % (m/m)
- Maximum solubility ([1]; in Capric/caprylic triglycerides, T=1 hour): 1.70 % (m/m)
- Maximum solubility ([1]; in Diisopropyl adipate, T=1 hour): 10.40 % (m/m)
- Maximum solubility ([1]; in Dimethyl isosorbide, T=1 hour): 35.20 % (m/m)
- Maximum solubility ([1]; in Ethanol rectapur, T=1 hour): 14.47 % (m/m)
- Maximum solubility ([1]; in Macrogol 15 hydroxystearate, T=1 hour): 10.60 % (m/m)
- Maximum solubility ([1]; in N-Methyl-2-pyrrolidone, T=1 hour): 58.13 % (m/m)
- Maximum solubility ([1]; in Octyl dodecanol, T=1 hour): 2.50 % (m/m)
- Maximum solubility ([1]; in Oleyl alcohol, T=1 hour): 3.48 % (m/m)
- Maximum solubility ([1]; in PEG 400, T=1 hour): 9.14 % (m/m)
- Maximum solubility ([1]; in PPG 15 stearyl ether, T=1 hour): 3.30 % (m/m)
- Maximum solubility ([1]; in Phenoxyethanol, T=1 hour): 15.70 % (m/m)
- Maximum solubility ([1]; in Poloxamer 124, T=1 hour): 7.50 % (m/m)
- Maximum solubility ([1]; in Polysorbate 80, T=1 hour): 10.31 % (m/m)
- Maximum solubility ([1]; in Propylene glycol (PG), T=1 hour): 21.83 % (m/m)
- Maximum solubility ([1]; in Triacetin, T=1 hour): 7.22 % (m/m)
- Amount after storage at 25° C. for 1 month ([2]; in Benzyl alcohol, 25° C.): 99.01%
- Amount after storage at 40° C. for 1 month ([2]; in Benzyl alcohol, 40° C.): 98.62%
- Amount at T0 ([2]; in Benzyl alcohol, T0): 98.72%
- Amount after storage at 25° C. for 1 month ([2]; in Diisopropyl adipate, 25° C.): 97.19%
- Amount after storage at 40° C. for 1 month ([2]; in Diisopropyl adipate, 40° C.): 96.70%
- Amount at T0 ([2]; in Diisopropyl adipate, T0): 102.5%
- Amount after storage at 25° C. for 1 month ([2]; in Macrogol 15-hydroxystearate, 25° C.): 95.32%
- Amount after storage at 40° C. for 1 month ([2]; in Macrogol 15-hydroxystearate, 40° C.): 71.88%
- Amount at T0 ([2]; in Macrogol 15-hydroxystearate, T0): 98.76%
- Amount after storage at 25° C. for 1 month ([2]; in PPG 15-stearyl ether, 25° C.): 98.61%
- Amount after storage at 40° C. for 1 month ([2]; in PPG 15-stearyl ether, 40° C.): 98.07%
- Amount at T0 ([2]; in PPG 15-stearyl ether, T0): 102.48%
- Amount after storage at 25° C. for 1 month ([2]; in Phenoxyethanol, 25° C.): 97.77%
- Amount after storage at 40° C. for 1 month ([2]; in Phenoxyethanol, 40° C.): 98.56%
- Amount at T0 ([2]; in Phenoxyethanol, T0): 99.42%
- Amount after storage at 25° C. for 1 month ([2]; in Poloxamer 124, 25° C.): 98.19%
- Amount after storage at 40° C. for 1 month ([2]; in Poloxamer 124, 40° C.): 92.34%
- Amount at T0 ([2]; in Poloxamer 124, T0): 98.09%
- Stability of ivermectin (in words) ([2]; in diisopropyl adipate, benzyl alcohol, PPG-15 stearyl ether and phenoxyethanol, at room temperature or at 40° C.): good stability
- Stability of ivermectin (in words) ([2]; in macrogol 15-hydroxystearate and in poloxamer, in particular at 40° C.): less stable
